According to patent US5310729A, “Interferon-related polypeptides as CR2 ligands and their use for modulating immune cell functions” (California Institute of Biological Research, priority 1990, dated 1994):
Ends that are not written are not given here.

How the values were obtained:
CR2 = molecular target: T1, CR2 (Homo sapiens, UniProt P20023); assay: Inhibition of CR2 binding to rIFNα by competing polypeptides; conditions: competing polypeptide at 100ug/ml; rIFNα solid phase, CR2 liquid phase
T1 construct: CR2 is isolated from Raji cells (ATTC CCL 86); endogenous in cells; host or cells: Raji cells (ATCC CCL 86)
T1 sequence (P20023 21-1033): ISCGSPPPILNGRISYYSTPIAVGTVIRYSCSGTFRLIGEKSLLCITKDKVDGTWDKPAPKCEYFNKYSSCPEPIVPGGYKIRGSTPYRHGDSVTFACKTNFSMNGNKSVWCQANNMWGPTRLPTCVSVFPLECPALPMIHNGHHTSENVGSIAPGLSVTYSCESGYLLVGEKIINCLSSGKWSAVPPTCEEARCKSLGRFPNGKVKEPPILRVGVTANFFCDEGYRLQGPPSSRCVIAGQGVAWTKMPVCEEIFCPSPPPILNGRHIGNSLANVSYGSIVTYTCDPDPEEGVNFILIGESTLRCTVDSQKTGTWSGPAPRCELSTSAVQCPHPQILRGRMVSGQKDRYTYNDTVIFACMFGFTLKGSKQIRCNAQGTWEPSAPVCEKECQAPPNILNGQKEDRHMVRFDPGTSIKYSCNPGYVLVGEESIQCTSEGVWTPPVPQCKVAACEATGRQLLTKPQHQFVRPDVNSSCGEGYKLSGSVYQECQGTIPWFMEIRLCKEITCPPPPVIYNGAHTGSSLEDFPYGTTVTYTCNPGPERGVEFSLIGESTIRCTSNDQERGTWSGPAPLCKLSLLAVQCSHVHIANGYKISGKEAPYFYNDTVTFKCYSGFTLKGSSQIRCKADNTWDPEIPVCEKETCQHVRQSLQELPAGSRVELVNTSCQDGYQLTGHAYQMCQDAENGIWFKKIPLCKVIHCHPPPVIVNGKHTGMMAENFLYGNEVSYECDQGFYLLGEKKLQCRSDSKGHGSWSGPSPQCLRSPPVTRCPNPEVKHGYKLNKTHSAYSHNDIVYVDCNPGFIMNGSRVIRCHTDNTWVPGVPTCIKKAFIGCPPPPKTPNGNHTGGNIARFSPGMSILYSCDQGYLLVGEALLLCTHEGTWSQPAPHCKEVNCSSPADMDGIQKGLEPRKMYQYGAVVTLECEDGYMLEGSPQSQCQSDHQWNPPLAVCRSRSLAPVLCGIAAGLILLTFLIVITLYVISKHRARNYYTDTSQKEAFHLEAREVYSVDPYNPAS
Protocol: A binding reaction admixture containing rIFNα in the solid phase and CR2 in the liquid phase was prepared as described in Example 3c except that a competing CR2 ligand shown in Table 6 was also included in the admixture at a concentration of 100ug/ml. Thereafter, the binding assay was conducted as described in Example 3c to measure the amount of CR2 specifically bound to rIFNα.

[1] = molecular target: T2, native CR2 present on Raji cells (Homo sapiens, UniProt P20023); assay: Inhibition of Zymosan-C3 rosette formation in Raji cells; type: cell-based; conditions: 10^5 Raji cells; zero to 200 μg tested, amount for the value not stated
T2 construct: native CR2 present on Raji cells; endogenous in cells; host or cells: Raji cells
T2 sequence (P20023 21-1033): T1 sequence (P20023 21-1033)
Protocol: Fresh blood was collected from a healthy donor, maintained at room temperature for 2 hours, centrifuged at 2000×g for about 10 min and the resulting supernatant collected. Five mg of Zymosan A particles (Sigma Chemical Co., St. Louis, Mo.) were boiled for 30 min in 20 ml of 150 mM NaCl and washed three times in phosphate-buffered saline (PBS) to form activated particles. One mg of activated particles was admixed with 0.5 ml of the collected blood supernatant, the admixture was maintained at 37° C. for 30 minutes, and then the particles were washed 3 times in PBS. The washed particles were re-suspended in PBS at a concentration of 0.5 mg/ml to form a C3-coated Zymosan composition.
Cultures containing 10^5 Raji cells were admixed with 100 microliters (μl ) of culture medium containing varying amounts (zero to 200 μg) of C3 or IFNαA derived polypeptides (p7 and p2 prepared in Example 1) or rIFNα prepared in Example 3b and the admixture maintained at 37° C. for 30 minutes to allow the CR2 ligand polypeptides to bind any CR2 receptor present on the Raji cells. Thereafter, 50 μl of the C3-coated Zymosan composition were added to each cell culture. […] More than 3 rosettes per cell were counted as C3 specific binding. Inhibition is expressed as the percent decrease in bound rosettes when comparing binding in the presence or absence of admixed polypeptide.

rIFNα = conditions: BSA added to the binding reaction admixture in place of CR2
Protocol: Various amounts of affinity-purified recombinant IFNα(rIFNα) prepared in Example 3b was added to the wells of Falcon EIA plates in 50 μl of coupling buffer (100 mM NaHC03, pH 9.3) and maintained for 2 hours at 37° C. to allow the IFNα to absorb onto the walls of the wells. Subsequently, the wells were washed by 3-fold immersion in PBS containing Tween 20 at 0.05% (referred to as PBST) and then PBST was added to the wells and the wells were maintained for 1 hour at 37° C. as a saturation step. After the wash and saturation steps, twice-affinity-purified CR2, prepared as described in Example 2, was added to each well in about 50 ul of PBST to form a binding reaction admixture containing 50 nanograms (ng) the amount of CR2 per 50 ul. The admixture was maintained for 2 hours at 37° C. to allow the added CR2 in the liquid phase to specifically bind with the rIFNα present immobilized in the solid phase on the walls of the wells. The wells were then washed with PBST to remove unbound CR2. […] The formation of p-nitrophenol was determined by measuring optical absorbance at 405 nm in a Titertek ELISA reader (Titertek Multiskan MCC/340, Metea, Va.).

Substance	inhibition at 100 µg/mL (CR2)	Percent Inhibition of Zymosan-C3 Rosette Formation in Raji Cells [1]	Binding to solid-phase rIFNα (in words) (rIFNα)
QLNNLEACV [p4, QLNNLEACV]	45%		
QLYNVEATS [p7, QLYNVEATS]	50%	77%	
SPGRGD [p10, SPGRGD]	0%		
QLNDMEACV [p6, QLNDMEACV]	0%		
QLNDLEACV [p2, QLNDLEACV]	48%	55%	
bovine serum albumin [BSA]			no dose dependent binding
